Assay results from patent publication US8703951B2, “Synthesis of 4H-benzo[D]pyrrolo[1,2-A]thiazoles and indolizino[6,7-b]indole derivatives and their use as antitumor therapeutic agents” (Academia Sinica, priority 2011, dated 2014).
Like-named read-outs stand apart in the source and are kept apart here.

Experiments:
[1] = test system: non-small cell lung carcinoma H1299; assay: In vitro cytotoxicity, Alamar blue assay, H1299; format: cell-based, human
Description: (§1) Prostate cancer PC3, non-small cell lung carcinoma cells H1299, and human glioma cells U87 were purchased from the American Type Culture Collection (Rockville, Md.). OECM-1 (human gingival squamous cell carcinoma cells) was obtained from Dr C.-L. Meng (National Defense Medical College, Taiwan).^22
(§2) In preparation for in vitro cytotoxicity assays, cells were cultured at an initial density 2−5×10^4 cells per milliliter. They were maintained in a 5% CO2-humidified atmosphere at 37° C. in RPMI medium 1640 (GIBCO/BRL) containing penicillin (100 units/mL), streptomycin (100 μg/mL, GIBCO/BRL), and 5% heat-inactivated FBS. For cells grown in suspension (such as CCRF-CEM and its sublines), cytotoxicity was measured, by using XTT microculture method^23 in 96-well microtiter plates.
(§3) The cytotoxic effects of the newly synthesized compounds were determined in T-cell acute lymphocytic leukemia (CCRF-CEM) and their resistant subcell lines (CCRF-CEM/Taxol and CCRF-CEM/VBL) by the XTT assay^24 and human solid tumor cells (i.e. breast carcinoma MX-1 and colon carcinoma HCT-116) by the SRB assay^25 in a 72 h incubation using a microplate spectrophotometer as described previously.^25 After the addition of phenazine methosulfate-XTT solution, incubated at 37° C. for 6 h and absorbance at 450 and 630 nm was detected on a microplate reader (EL 340). The cytotoxicity of the newly synthesized compounds against non-small cell lung carcinoma H1299, prostate cancer PC3, oral cancer OECM-1 and glioma U87 were determined by the Alamar blue assay^26 in a 72 h incubation using a microplate spectrophotometer as described previously. After the addition of alamar blue solution, it was incubated at 37° C. for 6 h. Absorbance at 570 and 600 nm was detected on a microplate reader. IC50 values were determined from dose-effect relationship at six or seven concentrations of each drug using the CompuSyn software by Chou and Martin^27 based on the median-effect principle and plot.^28,29 Ranges given for Cisplatin were mean±SE (n=4).

CCRF-CEM/Taxol = assay: In vitro cytotoxicity, XTT assay, CCRF-CEM/Taxol; format: cell-based, human; conditions: Table 5; for IC50: Taxol-resistant subline, XTT, 72 h, read-out: Cell Growth inhibition (IC50 μM) CCRF-CEM/Taxol; for fold of cross-resistant vs IC50 of the parent cell line, CCRF-CEM/Taxol: number in brackets
Source text: (§4) Human colon carcinoma HCT-116 cells and human prostate adenocarcinoma PC-3 cells were obtained from American Type Culture Collection (ATCC, Rockville, Md.). Human mammary carcinoma (MX-1) tumor cells were obtained from MSKCC cell bank. The CCRF-CEM human lymphoblastic leukemia cells and their vinblastine resistant subline (CCRF-CEM/VBL, 680-fold resistance in vitro) were obtained from Dr. William Beck of the University of Illinois, Chicago, and CCRF-CEM/Taxol (330-fold resistance in vitro). Resistant cells CCRF-CEM/taxol were produced by exposing the parent cells to increasing sublethal concentration (IC50-IC90) of paclitaxel for six months.
as §2, §3

CCRF-CEM/VBL = assay: In vitro cytotoxicity, XTT assay, CCRF-CEM/VBL; format: cell-based, human; conditions: Table 5; for IC50: vinblastine-resistant subline, XTT, 72 h, read-out: Cell Growth inhibition (IC50 μM) CCRF-CEM/VBL; for fold of cross-resistant vs IC50 of the parent cell line, CCRF-CEM/VBL: number in brackets
Source text: as §4, §2, §3

oral cancer OECM-1 = assay: In vitro cytotoxicity, Alamar blue assay, OECM-1; format: cell-based, human
Description: as §1, §2, §3

prostate cancer PC3 = assay: In vitro cytotoxicity, Alamar blue assay, PC3; format: cell-based, human; conditions: Table 6, 72 h
Description: as §1, §2, §3

[2] = test system: human lymphoblastic leukemia (CCRF-CEM); assay: In vitro cytotoxicity, XTT assay, CCRF-CEM; format: cell-based
Source text: as §4, §2, §3

glioma U87 = assay: In vitro cytotoxicity, Alamar blue assay, U87; format: cell-based, human; conditions: Table 6, 72 h
Description: as §1, §2, §3

breast carcinoma MX-1 = assay: In vitro cytotoxicity, SRB assay, MX-1; format: cell-based, human
Source text: as §4, §2, §3

colon carcinoma HCT-116 = assay: In vitro cytotoxicity, SRB assay, HCT-116; format: cell-based, human
Source text: as §4, §2, §3

[3] = Table 5, 72 h incubation, read-out: Cell Growth inhibition (IC50 μM) CCRF-CEM
[4] = Table 7, 72 h, read-out: IC50 (μM) CCRF/CEM

OCc1c(CO)c2sc3ccccc3n2c1C1CC1 [Compound 18j, (1-Cyclopropylbenzo[d]pyrrolo[2,1-b]thiazole-2,3-diyl)dimethanol]
IC50 ([1]; Homo sapiens, NCI-H1299, Table 6, 72 h): 13.3 ± 2.23 µM
IC50 (CCRF-CEM/Taxol; Homo sapiens, CCRF-CEM): 2.31 ± 0.0048 µM
fold of cross-resistant vs IC50 of the parent cell line, CCRF-CEM/Taxol (CCRF-CEM/Taxol): 2.37 ×
IC50 (CCRF-CEM/VBL; Homo sapiens, CCRF-CEM): 2.44 ± 0.01 µM
fold of cross-resistant vs IC50 of the parent cell line, CCRF-CEM/VBL (CCRF-CEM/VBL): 2.51 ×
IC50 (oral cancer OECM-1; Homo sapiens, OECM1, Table 6, 72 h): 7.12 ± 0.95 µM
IC50 (prostate cancer PC3; Homo sapiens): 10.7 ± 2.29 µM
IC50 ([2]; Homo sapiens, CCRF-CEM, Table 5, 72 h incubation, read-out: Cell Growth inhibition (IC50 μM) CCRF-CEM): 0.97 ± 0.07 µM
IC50 (glioma U87; Homo sapiens): 28.7 ± 4.32 µM

CCNC(=O)OCc1c(COC(=O)NCC)c2sc3ccccc3n2c1C [Compound 19a, (1-Methylbenzo[d]pyrrolo[2,1-b]thiazole-2,3-diyl)bis(methylene)bis(ethylcarbamate)]
IC50 (CCRF-CEM/Taxol): 0.45 ± 0.013 µM
fold of cross-resistant vs IC50 of the parent cell line, CCRF-CEM/Taxol (CCRF-CEM/Taxol): 1.30 ×
fold of cross-resistant vs IC50 of the parent cell line, CCRF-CEM/VBL (CCRF-CEM/VBL): 1.30 ×
IC50 (CCRF-CEM/VBL): 0.43 ± 0.003 µM
IC50 [2, 3]: 0.33 ± 0.01 µM

CCNC(=O)OCc1c(COC(=O)NCC)c2sc3ccccc3n2c1-c1ccc(F)cc1 [Compound 19b, (1-(4-Fluorophenyl)benzo[d]pyrrolo[2,1-b]thiazole-2,3-diyl)bis(methylene)bis(ethylcarbamate)]
IC50 ([1]; Table 6, 72 h): 13.6 ± 2.03 µM
IC50 (CCRF-CEM/Taxol): 0.38 ± 0.002 µM
fold of cross-resistant vs IC50 of the parent cell line, CCRF-CEM/Taxol (CCRF-CEM/Taxol): 5.42 ×
fold of cross-resistant vs IC50 of the parent cell line, CCRF-CEM/VBL (CCRF-CEM/VBL): 6.42 ×
IC50 (CCRF-CEM/VBL): 0.45 ± 0.033 µM
IC50 (oral cancer OECM-1; Table 6, 72 h): 11.5 ± 2.63 µM
IC50 (prostate cancer PC3): 23.7 ± 3.05 µM
IC50 [2, 3]: 0.07 ± 0.0002 µM
IC50 (breast carcinoma MX-1; Table 6, 72 h): 0.48 ± 0.005 µM
IC50 (colon carcinoma HCT-116; Table 6, 72 h): 0.52 ± 0.025 µM
IC50 (glioma U87): 29.2 ± 2.63 µM

CCNC(=O)OCc1c(COC(=O)NCC)c2sc3ccccc3n2c1-c1ccc(F)c(F)c1 [Compound 19d, (1-(3,4-Difluorophenyl)benzo[d]pyrrolo[2,1-b]thiazole-2,3-diyl)bis(methylene)bis(ethylcarbamate)]
IC50 ([1]; Table 6, 72 h): 10.3 ± 1.11 µM
IC50 (CCRF-CEM/Taxol): 0.34 ± 0.008 µM
fold of cross-resistant vs IC50 of the parent cell line, CCRF-CEM/Taxol (CCRF-CEM/Taxol): 1.61 ×
fold of cross-resistant vs IC50 of the parent cell line, CCRF-CEM/VBL (CCRF-CEM/VBL): 1.47 ×
IC50 (CCRF-CEM/VBL): 0.31 ± 0.002 µM
IC50 (oral cancer OECM-1; Table 6, 72 h): 14.6 ± 3.39 µM
IC50 (prostate cancer PC3): 19.3 ± 3.44 µM
IC50 [2, 3]: 0.21 ± 0.01 µM
IC50 (breast carcinoma MX-1; Table 6, 72 h): 1.49 ± 0.04 µM
IC50 (colon carcinoma HCT-116; Table 6, 72 h): 1.1 ± 0.015 µM
IC50 (glioma U87): 38.5 ± 7.21 µM

CCNC(=O)OCc1c(COC(=O)NCC)c2sc3ccccc3n2c1C1CC1 [Compound 19j, (1-Cyclopropylbenzo[d]pyrrolo[2,1-b]thiazole-2,3-diyl)bis(methylene)bis(ethylcarbamate)]
IC50 ([1]; Table 6, 72 h): 20.6 ± 1.89 µM
IC50 (CCRF-CEM/Taxol): 0.68 ± 0.004 µM
fold of cross-resistant vs IC50 of the parent cell line, CCRF-CEM/Taxol (CCRF-CEM/Taxol): 4.01 ×
fold of cross-resistant vs IC50 of the parent cell line, CCRF-CEM/VBL (CCRF-CEM/VBL): 3.18 ×
IC50 (CCRF-CEM/VBL): 0.54 ± 0.008 µM
IC50 (oral cancer OECM-1; Table 6, 72 h): 26.3 ± 4.44 µM
IC50 (prostate cancer PC3): 24.2 ± 2.96 µM
IC50 [2, 3]: 0.17 ± 0.03 µM
IC50 (glioma U87): 74.5 ± 8.7 µM

CC(C)NC(=O)OCc1c(COC(=O)NC(C)C)c2sc3ccccc3n2c1-c1ccc(F)c(F)c1 [Compound 20d, (1-(3,4-Difluorophenyl)benzo[d]pyrrolo[2,1-b]thiazole-2,3-diyl)bis(methylene)bis(iso-propylcarbamate)]
IC50 ([1]; Table 6, 72 h): 30.8 ± 6.92 µM
IC50 (CCRF-CEM/Taxol): 0.19 ± 0.004 µM
fold of cross-resistant vs IC50 of the parent cell line, CCRF-CEM/Taxol (CCRF-CEM/Taxol): 0.57 ×
fold of cross-resistant vs IC50 of the parent cell line, CCRF-CEM/VBL (CCRF-CEM/VBL): 0.90 ×
IC50 (CCRF-CEM/VBL): 0.3 ± 0.001 µM
IC50 (oral cancer OECM-1; Table 6, 72 h): 15.1 ± 1.34 µM
IC50 (prostate cancer PC3): 29.6 ± 1.83 µM
IC50 [2, 3]: 0.33 ± 0.001 µM
IC50 (breast carcinoma MX-1; Table 6, 72 h): 1 ± 0.002 µM
IC50 (colon carcinoma HCT-116; Table 6, 72 h): 0.41 ± 0.005 µM
IC50 (glioma U87): 74.9 ± 15.7 µM

CC(C)NC(=O)OCc1c(COC(=O)NC(C)C)c2sc3ccccc3n2c1C1CC1 [Compound 20j, (1-Cyclopropylbenzo[d]pyrrolo[2,1-b]thiazole-2,3-diyl)bis(methylene)bis(iso-propyl-carbamate)]
IC50 ([1]; Table 6, 72 h): 20.4 ± 1.65 µM
IC50 (CCRF-CEM/Taxol): 0.73 ± 0.013 µM
fold of cross-resistant vs IC50 of the parent cell line, CCRF-CEM/Taxol (CCRF-CEM/Taxol): 7.30 ×
fold of cross-resistant vs IC50 of the parent cell line, CCRF-CEM/VBL (CCRF-CEM/VBL): 9.00 ×
IC50 (CCRF-CEM/VBL): 0.9 ± 0.011 µM
IC50 (oral cancer OECM-1; Table 6, 72 h): 9.67 ± 1.06 µM
IC50 (prostate cancer PC3): 13.4 ± 0.84 µM
IC50 [2, 3]: 0.1 ± 0.01 µM
IC50 (glioma U87): 45.5 ± 6.19 µM

CCNC(=O)OCc1c(COC(=O)NCC)c(-c2ccc(Cl)cc2)n2c1Cc1c(n(C)c3ccccc13)C2 [Compound 27d, [3-(4-Chlorophenyl)-6-methyl-6,11-dihydro-5H-indolizino[6,7-b]indole-1,2-diyl]bis(methylene)bis(ethylcarbamate)]
IC50 [2, 4]: 0.35 ± 0.013 µM
IC50 (breast carcinoma MX-1; Table 7, 72 h): 1.83 ± 0.082 µM
IC50 (colon carcinoma HCT-116; Table 7, 72 h): 1.17 ± 0.009 µM

CC(C)NC(=O)OCc1c(COC(=O)NC(C)C)c(-c2ccc(Cl)cc2)n2c1Cc1c(n(C)c3ccccc13)C2 [Compound 28d, [3-(4-Chlorophenyl)-6-methyl-6,11-dihydro-5H-indolizino[6,7-b]indole-1,2-diyl]bis(methylene) (isopropylcarbamate)]
IC50 [2, 4]: 0.437 ± 0.003 µM
IC50 (breast carcinoma MX-1; Table 7, 72 h): 12.39 ± 0.05 µM
IC50 (colon carcinoma HCT-116; Table 7, 72 h): 3.06 ± 0.067 µM
